Laboratory results published in ChEMBL document CHEMBL4680201, “Design, synthesis, and pharmacological evaluation of 4- or 6-phenyl-pyrimidine derivatives as novel and selective Janus kinase 3 inhibitors” (Eur J Med Chem, 2020).

Assays:
[1] = MRT (0 to infinity) in ICR mouse at 30 mg/kg, po administered as single dose via gavage by LC-MS/MS analysis; type: ADME, organism-based; conditions: in vivo
[2] = target: T1, Tyrosine-protein kinase JAK3 (Mus musculus) (UniProt Q62137); assay: Inhibition of JAK3 in anti-CD3/-CD28 coated mouse T cells assessed as reduction in IL2-induced STAT5 phosphorylation preincubated for 1 hr followed by IL2 stimulation and measured after 30 mins by Western blot analysis; conditions: T cell
T1 sequence (whole entry): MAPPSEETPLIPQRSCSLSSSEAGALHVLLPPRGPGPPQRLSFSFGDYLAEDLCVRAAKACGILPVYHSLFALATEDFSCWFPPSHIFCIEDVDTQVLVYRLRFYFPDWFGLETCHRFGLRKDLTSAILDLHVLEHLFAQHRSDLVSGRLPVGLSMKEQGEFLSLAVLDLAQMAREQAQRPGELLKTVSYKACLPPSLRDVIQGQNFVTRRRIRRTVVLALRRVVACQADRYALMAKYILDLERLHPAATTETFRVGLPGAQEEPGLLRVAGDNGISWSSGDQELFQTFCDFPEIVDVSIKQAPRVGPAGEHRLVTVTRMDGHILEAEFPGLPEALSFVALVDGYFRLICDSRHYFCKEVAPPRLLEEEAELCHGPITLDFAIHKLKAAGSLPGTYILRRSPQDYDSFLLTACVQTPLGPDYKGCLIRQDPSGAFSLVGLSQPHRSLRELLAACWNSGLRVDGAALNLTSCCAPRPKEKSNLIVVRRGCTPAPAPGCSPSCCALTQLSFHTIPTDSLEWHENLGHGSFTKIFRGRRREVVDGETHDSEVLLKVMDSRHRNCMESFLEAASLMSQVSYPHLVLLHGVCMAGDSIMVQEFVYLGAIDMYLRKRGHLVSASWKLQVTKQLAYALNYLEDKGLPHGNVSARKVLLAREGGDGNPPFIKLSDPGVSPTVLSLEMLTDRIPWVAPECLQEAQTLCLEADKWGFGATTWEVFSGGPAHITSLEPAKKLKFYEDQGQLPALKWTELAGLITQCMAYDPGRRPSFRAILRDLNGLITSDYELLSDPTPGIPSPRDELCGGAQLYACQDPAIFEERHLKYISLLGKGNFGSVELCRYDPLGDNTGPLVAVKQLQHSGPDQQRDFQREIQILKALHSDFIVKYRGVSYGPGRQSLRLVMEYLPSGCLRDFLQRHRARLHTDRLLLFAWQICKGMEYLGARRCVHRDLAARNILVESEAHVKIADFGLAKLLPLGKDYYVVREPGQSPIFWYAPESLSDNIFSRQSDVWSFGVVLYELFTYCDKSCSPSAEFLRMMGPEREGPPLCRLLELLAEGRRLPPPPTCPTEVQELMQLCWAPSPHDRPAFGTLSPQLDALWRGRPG

[3] = MRT (0 to t) in ICR mouse at 10 mg/kg, iv administered as single dose by LC-MS/MS analysis; type: ADME, organism-based; conditions: in vivo
[4] = target: BLK (Tyrosine-protein kinase Blk) (Homo sapiens, UniProt P51451); assay: Inhibition of recombinant human His-tagged full length BLK expressed in baculovirus expression system at 100 nM using Tyr01 peptide as substrate incubated for 1 hr in presence of ATP by Z'-LYTE assay relative to control; conditions: probe Tyr01 peptide
Chain of BLK (Tyrosine-protein kinase Blk) (P51451 whole entry): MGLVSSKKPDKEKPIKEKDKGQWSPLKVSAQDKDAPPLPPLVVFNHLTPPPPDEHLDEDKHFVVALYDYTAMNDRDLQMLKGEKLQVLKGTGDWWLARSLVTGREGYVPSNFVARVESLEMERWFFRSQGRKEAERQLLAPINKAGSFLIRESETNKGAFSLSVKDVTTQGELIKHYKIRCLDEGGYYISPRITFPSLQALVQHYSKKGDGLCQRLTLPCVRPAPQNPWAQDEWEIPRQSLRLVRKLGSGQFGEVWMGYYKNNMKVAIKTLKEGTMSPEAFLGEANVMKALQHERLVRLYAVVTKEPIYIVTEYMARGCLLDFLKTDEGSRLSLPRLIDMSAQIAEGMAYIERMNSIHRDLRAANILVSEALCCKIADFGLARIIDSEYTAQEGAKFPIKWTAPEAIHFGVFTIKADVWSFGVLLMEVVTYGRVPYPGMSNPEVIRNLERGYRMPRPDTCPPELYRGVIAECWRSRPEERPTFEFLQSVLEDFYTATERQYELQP

MRT inf [1]: 1.42 h
inhibition [2]: Dose-dependent effect
MRT last [3]: 43.8 min
inhibition at 1 h, 0.1 µM [4]: 20.6%
SMILES: C=CC(=O)Nc1ccc(-c2ccnc(Nc3ccc(N4CCOCC4)cc3)n2)cc1
